Test results: patent US20060183733A1, “Treating microvasculature diseases with acetyl cholinesterase inhibitors” (priority 2005, published 2006)
Entries after “also recorded” stand apart in the source; their conditions may differ. Read-outs that look alike come from different tables or passages of the source.

Experiments:
[1] = system: patients with GI or urinary side effects of an acetylcholinesterase inhibitor; experiment: Treatment of side effects of acetylcholinesterase inhibitors (case histories); assay type: in vivo; conditions: for relief of urinary side effects (polyuria, frequency): Detrol / Detrol LA 2-4 mg daily with donepizil; for relief of GI side effects (nausea, diarrhea, frequent bowel movements, cramps): metoclopramide (Reglan) 5 mg before meals and at bedtime, with an acetylcholinesterase inhibitor
Description: Metoclopramide (Reglan®) is an […].
The most extreme example of neuropathic pain arises following amputation where there is complete transection of the nerve. Pain complaints are difficult to manage with the usual combinations of anti-seizure drugs, tricyclic anti-depressants and narcotics.

[2] = system: patients with urinary retention; experiment: Patient case histories: urinary retention (voiding trials, post void residuals); conditions: for post void residuals (PVR's): before 150-200 cc
[3] = system: cutaneous blood flow; conditions: animal models; cited from earlier work
[4] = system: patients with peripheral vascular disease and diabetes mellitus; experiment: Patient case histories: microvascular disease / vascular insufficiency; assay type: in vivo, human; conditions: galantamine 4-8 mg two to four times daily
Description: In summary, vascular insufficiency from diabetes is associated with compromise of the microvascular circulation. Treatment with an effective dose of an acetylcholinesterase inhibitor raises the relative concentration of acetylcholine promoting vasodilitation of the microcirculation (end arterioles) through stimulation of neuronal and non-neuronal acetylcholine receptors in the intima of the blood vessels. The beneficial effects of promoting vasodilitation and enhanced tissue perfusion correcting the dystrophic changes and alleviating ischemic pain and ulcers is readily apparent in this series of patients.
The present invention provides a method for the medical management of peripheral vascular disease. The management of peripheral vascular disease with acetylcholinesterase inhibitor addresses the central dilemma in vascular perfusion of the lower extremities. By increasing the relative concentration of acetylcholine, the parasympthetic nervous system is enhanced, improving blood flow at the tissue level by relaxation of the small end arterioles and improving perfusion therefore decreasing vascular edema, enhancing resolution of trohpic ulcers and alleviating rest pain and claudication complaints. The parasympathetic nervous system controls vascular beds in the small arterioles and by increasing the available acetylcholine, dilatation occurs and blood flow improves. By treatment with acetylcholinesterase inhibitors the end results in improved vascular blood supply, decreased congestion at the small arterioles level and improved blood supply. This is particularly necessary in diabetic patients. The presence of non-neuronal acetylcholine receptors with the intima of blood vessels at the microvascular level represents a second physiologic mechanism whereby dilatation of small blood vessels is facilitated by the use of an acetylcholinesterase inhibitor. This latter mechanism owing to the sensitive nature of the cholinesterases associated with the non neuronal acetylcholine system provides sustained cholinergic activity impacting the microvascular circulation and improving perfusion at the critical end arteriole-capillary-venule level.

[5] = system: patients with chronic renal insufficiency; experiment: Patient case histories: chronic renal insufficiency (serum creatinine, BUN); assay type: in vivo, human; conditions: galantamine 4 mg orally three times daily
Description: To postpone or avoid the sequelae of chronic renal insufficiency, treatment with acetylcholinesterase inhibitors increase the concentration of acetycholine available to promote blood flow to the renal cortex preventing loss of nephrons and allowing existing renal parenchyma to provide the vital function of the kidney. Just as parasympathetic outflow provide homeostatic neural input to the elimination of function of the intestine, the same parasympathetic innervation provides vasodilatation of the small arterioles supplying the cortex of the kidneys allowing for optimal functioning.

[6] = system: patients with diabetic polyneuropathy; assay type: in vivo, human
Description: The symptoms of motor and sensory loss of diabetic polyneuropathy are ameliorated by acetylcholinesterase inhibitions by increasing concentration of acetylcholine, the principle neurotransmitter of the parasympathetic nervous system. By augmenting the trophic input of nerves of parasympathic nervous system; pain and dyserethesia are diminished and weakness/atrophy of muscles are diminished. The clinical observation in non-Alzheimer's patients is an improvement in motor and sensory function following treatment with effective doses of an acetylcholinesterase inhibitor. Improved blood flow within the microvascular circulation supplying the vasovasorum of the nerves produces the beneficial effect. By restoring blood flow to the vasovasorum of the nerves ischemic pain is relieved and normal function of the nerve is allowed to occur. The process of vasodilatation of the microvascular circulation is mediated through both neuronal and non-neuronal acetylcholine receptors stimulation by acetylcholine. Enhancement in acetylcholine levels is effected through treatment with acetylcholinesterase inhibitors.
The physiologic shift favoring vasoconstriction that is associated with diabetes is reversed following administration of an acetylcholinesterase inhibitor allowing perfusion of the microvasculature, restoring blood flow to ischemic motor and sensory nerves damaged by the effects of diabetes.

[7] = system: patients with lymphedema; assay type: in vivo, human
Description: The improvement in perfusion within the small arterioles decreases the hydrostatic pressure at the end arterioles and therefore reduces interstitial fluid accumulation that impedes the return of lymph fluid within the lymphatic vessels. The physics model for this phenomenon makes use of Bernouli's equation and its relationship to a Venturi tube. Hydrostatic pressure proximal to a relative stricture creates a pressure gradient that leads to increased transudation that overwhelms the capacity of the lymphatic system to manage. The vasodilatory effects of the parasympathetic nervous system upon small arterioles produces improved perfusion and lessens the accumulation of lymphedema. A common example of lymphedema occurs following joint replacement surgery with swelling that persists for three to six months and sometimes permanently. Lymphedema following joint replacement surgery slows recovery and creates pain while predisposing to deep vein thrombosis and infection.

[8] = system: patients with Multiple Sclerosis; assay type: in vivo, human; conditions: galantamine 4 mg orally three times daily, foley catheter removed 48 hours later
Description: The present invention provides an acetylcholinesterase inhibitor to increase the relative concentration of […] within the central nervous system to improve parasympathetic neural transmission and combat the features of M. S. that often present in a craniosacral distribution. Cranial symptoms include mental status changes, emotional lability as well as optic dysfunction and nystgmus. Cranial nerves that control extracular muscles are also affected. Cranial involvement can also manifest as swallowing problems with frank dysphagia. The sacral manifestations of parasympathic dysfunction relate to bowel and bladder control. The symptoms of spastic bladder, urinary retention and constipation are relieved by treatment with an Acetylcholinesterase inhibitor raising the concentrations of acetylcholine to enhance the neural transmission of the parasympathetic nervous system to facilitate normal bowel and bladder function. The craniosacral manifestations of M.S. are reflected in dysfunctional neural transmission associated with the parasympathetic nervous system and can be ameliorated or corrected by treatment with an acetylcholinesterase inhibitor. Improved blood flow within the vasovasorum of the myelin sheath/nerve is also considered useful in amelioration of MS symptoms. […]

[9] = system: patients with phantom pain; experiment: Patient case histories: phantom pain following amputation; assay type: in vivo, human
Description: The present invention further provides a method of treating phantom pain following amputation in both upper and lower extremities. “Phantom pain” is a phenomenon described following amputation of either an upper or lower extremity. The sensation is common following amputation and present with varying degrees of discomfort and debility. A patient with phantom pain is typically treated with antidepressants, Neurontin® (gabapeninand) narcotics to a varying degree. The use of acetylcholinesterase inhibitors decreases the need for narcotics and generally eliminates the need for poly pharmacy improving pain, enhancing wound healing and improved sleep pattern in amputee patients. The dose of acetylcholinesterase inhibitor is titrated to GI (gastrointestinal) tolerance with bowel movement consistency and frequency the determining factors. Treatment with acetylcholinesterase inhibitor increases the available acetylcholine which is the neurotransmitter responsible for activation of the parasysmpathic nervous system appear responsible for Noxious symptoms of phantom pain for discomfort. The present invention provides a method of treating phantom pain associated with amputation of either upper or lower extremity.

[10] = system: patients with rheumatologic conditions (RA, SLE, PMR, polymyositis); experiment: Patient case histories: rheumatological conditions; assay type: in vivo, human
Description: The use of an acetylcholinesterase inhibitor raises level of acetylcholine by inhibition of cholinesterase. The Increased levels of acetylcholine stimulate neuronal receptors of the parasympathetic nervous system and non-neuronal receptors associated with the intima of blood vessels and leukocytes. This dual effect of improving flow within the microvascular circulation and stabilization of leukocytes and their adhesion to the wall of blood vessel produces the anti-inflammatory effect that is observed with the use of an acetylcholinesterase inhibitor for treatment of rheumatologic diseases.

[11] = system: patients with myofascial pain / fibromyalgia; experiment: Patient case histories: fibromyalgia / myofascial pain syndrome; assay type: in vivo, human
Description: The present invention provides a method for treating fibromyalgia and myofascial pain syndrome by increasing tissue levels of acetylcholine. Acetylcholine is the neurotransmitter of the parasympathic nervous system. The inventive method increases the relative amount of parasympathetic transmission and thereby facilitates resolution of the pain areas and diminishes the need for narcotics and polypharmacy. The reduction in the use of narcotics, NSAIDs, and tricyclic antidepressants and other medications used for pain having their deleterious side effects is a major benefit. By administration of acetyl cholinesterase inhibitor, the relative concentrations of acetylcholine are increased and available to propagate the impulses of the parasympathic nervous systems and within the non-neuronal acetylcholine receptors diminishing pain and spasms. […] The influence of non-neuronal acetylcholine receptors affected by enhanced levels of acetylcholine produces a reduction in pro-inflammatory mediators and increased blood flow to the nerve fibers involved in pain transmission. The net effect is a reduction in inflammation and improved blood flow to the vasovasorum of the affected nerves reducing the painful sensations.

[12] = system: patients with neuropathic pain; conditions: rivastigmine test dose
[13] = system: patients with Parkinson's disease; conditions: rivastigmine 1.5-3 mg twice daily
[14] = system: regional blood flow in the brain; conditions: PET scanning; Alzheimer's patients and normal subjects; cited from earlier work
[15] = rivastigmine 1.5 mg twice daily

Compound: Cc1ccc(O)c([C@H](CCN(C(C)C)C(C)C)c2ccccc2)c1 [Detrol LA, tolterodine]
- relief of urinary side effects (polyuria, frequency) [1]: prompt reduction in their urinary frequency; also recorded: able to tolerate this regimen
- relief of urinary side effects (polyuria, frequency) ([1]; listed as Detrol): treated successfully

Compound: CCOc1ccccc1OCCN[C@H](C)Cc1ccc(OC)c(S(N)(=O)=O)c1 [Flomax]
- voiding trial ([2]; Flomax 0.4 mg, then 0.8 mg, residuals in excess of 300 cc's before): first voiding trial was unsuccessful; also recorded: second voiding trial was also unsuccessful

Compound: CC(=O)OC(C)C[N+](C)(C)C (stereo not shown) [Methacholine]
- cutaneous blood flow and skin temperature [3]: increases cutaneous blood flow and skin temperature

Compound: CCN(CC)CCNC(=O)c1cc(Cl)c(N)cc1OC [Reglan, metoclopramide]
- relief of GI side effects (nausea, diarrhea, frequent bowel movements, cramps) [1]: able to continue treatment with donepizil; also recorded: prompt resolution of their GI complaints; also recorded: prompt relief of their GI complaints; also recorded: treated successfully
- relief of GI side effects (nausea, diarrhea, frequent bowel movements, cramps) ([1]; listed as metoclopramide): easily managed; also recorded: ameliorated or eliminated

Compound: COc1ccc2c3c1O[C@H]1C[C@@H](O)C=C[C@@]31CCN(C)C2 [galantamine]
- side effects [4]: No symptoms of diarrhea or gastroesophageal reflux disease (GERD) were reported; also recorded: no untoward side effects
- serum creatinine ([5]; before treatment 1.8): 1.4
- BUN (blood urea nitrogen) ([5]; before treatment 32): 21
- improvement in Left foot drop ([6]; galantamine titrated to 8 mg TID (a person)): 80-85%
- side effects ([7]; galantamine 4 mg orally three times daily, asthma patient): without compromise of their pulmonary condition
- post void residuals [8]: < 100 cc
- side effects ([9]; galantamine 4 mg BID titrated to four times a day): without nausea/vomiting or GI upset
- use of Oxycodone/APAP ([9]; galantamine 8 mg BID over two weeks, before: 5 tablets per day): 2-3 tablets per week
- side effects ([10]; galantamine 4-8 mg three times daily): no adverse side effects of diarrhea or nausea
- post void residuals (PVR's) ([2]; galantamine 4 mg orally three times daily): under 100 cc
- side effects ([2]; galantamine 4 mg three times daily to 8 mg two or three times daily): no untoward side effects; also recorded: mild nausea (without emesis)
- post void residuals (PVR's) ([2]; galantamine 8 mg orally twice daily): ~50 cc

Compound: CCN(C)C(=O)Oc1cccc([C@H](C)N(C)C)c1 [rivastigmine]
- course after the drug was withdrawn or lapsed ([6]; drug stopped after initial improvement): complaints of weakness and loss of ambulatory ability
- side effects ([11]; rivastigmine): no ill effects; also recorded: no adverse side effects
- clinical outcome (pain) [11, 15]: significant improvement; also recorded: greater control of their pain
- clinical outcome (pain) ([11]; rivastigmine 3 mg twice daily): near complete alleviation in their pain; also recorded: pain symptoms became less frequent
- clinical outcome (narcotic use) ([11]; rivastigmine 4 mg orally twice daily titrated upward to 8 mg three times daily): use of narcotics was completely eliminated
- side effects [7, 15]: no ill side effects
- clinical outcome (swelling, warmth, pain) ([10]; rivastigmine 1.5 mg orally twice daily, Rheumatoid Arthritis flair-up): signs of swelling and warmth improved but the patient still had complaints of pain
- clinical outcome (pain, swelling) ([10]; rivastigmine 3 mg orally twice daily, Rheumatoid Arthritis flair-up): pain symptoms resolved within a day; also recorded: concomitant improvement in their lower extremity swelling
- side effects ([10]; rivastigmine 1.5-3 mg twice daily): no adverse side effects such as dyspepsia, diarrhea or polyuria
- recurrence under prophylaxis ([10]; rivastigmine lower dose for prophylaxis, three month): no recurrence of pain or swelling
- clinical outcome (phantom pain) [12]: notable improvement in their phantom pain within one hour
- side effects [13]: no negative side effects
- regional blood flow in the brain / CNS structures [14]: Regional blood flow is increased; also recorded: improve blood flow to CNS structures; also recorded: improve regional blood flow in the brain
